Measured values reported in patent publication US4728736A, “Carbocyclic analogs of purine ribofuranosides” (priority 1984, dated 1988).
Values after ≈ are worked out from the molar mass of the structure shown.

How the values were obtained:
[1] = test system: herpes simplex virus, type 1 (strain 377); assay: Antiviral activity (virus rating); […]; format: cell-based; conditions: strain 377, Vero cells; for EC50: Human alphaherpesvirus 1, 50% inhibition of virus-induced cytopathogenic effects, read-out: MIC50, Herpes Simplex Type 1; for Virus Rating (VR), Herpes Simplex Type 1: VR 0.5-0.9 marginal to moderate, VR >= 1 definite activity
[2] = test system: herpes simplex virus, type 1 (strain HF); assay: Antiviral activity (virus rating); […]; format: cell-based; conditions: H.Ep. 2 cells; for EC50: Human alphaherpesvirus 1, HEp-2, strain HF, read-out: MIC50, Herpes Simplex Type 1; for Virus Rating (VR), Herpes Simplex Type 1: VR 0.5-0.9 marginal to moderate, VR >= 1 definite activity
[3] = test system: vaccinia virus (Lederle Chorioallantoic strain); assay: microbe, parasite or virus in culture; format: cell-based; conditions: for Virus Rating (VR), Vaccinia Virus: Lederle Chorioallantoic strain, H.Ep. 2 cells, VR 0.5-0.9 marginal to moderate, VR >= 1 definite activity; for EC50: Orthopoxvirus vaccinia, HEp-2, read-out: MIC50, Vaccinia Virus
[4] = test system: herpes simplex virus, type 1, and vaccinia virus; format: cell-based, type 1; vaccinia virus; conditions: cell culture
[5] = 50% inhibition of virus-induced cytopathogenic effects

Row | Compound | EC50 [1] [µg/mL] | Virus Rating (VR), Herpes Simplex Type 1 [1] | EC50 [2, 5] [µg/mL] | Virus Rating (VR), Herpes Simplex Type 1 ([2]; strain HF) | Virus Rating (VR), Vaccinia Virus [3] | MIC50, Herpes Simplex Type 1 ([2]; strain HF, 50% inhibition of virus-induced cytopathogenic effects) [µg/mL] | inhibiting replication of vaccinia virus (in words) [3] | EC50 [3] [µg/mL] | antiviral activity (in words) [4]
1 | Nc1nc2c(nnn2[C@@H]2C[C@H](CO)[C@@H](O)[C@H]2O)c(=O)[nH]1 (relative stereo) [Formula IV, Y = O, carbocyclic analog of 8-azaguanosine] | 58 | 2.2 | – | – | – | – | – | – | –
2 | Nc1nc(N)c2nnn([C@@H]3C[C@H](CO)[C@@H](O)[C@H]3O)c2n1 (relative stereo) [Example 6, (1α,2α,3β,5β)-3-(5,7-Diamino-3H-1,2,3-triazolo[4,5-d]pyrimidin-3-yl)-5-(hydroxymethyl)-1,2-cyclopentanediol] | – | 0.6 | 100 (≈ 356 µM) | 1.4 | – | – | – | – | –
3 | Nc1nc(Cl)c2nnn([C@@H]3C[C@H](CO)[C@@H](O)[C@H]3O)c2n1 (relative stereo) [Formula III, X = Cl, carbocyclic analog of 2-amino-6-chloro-8-azapurine ribofuranoside] | – | – | 81 | 0.9 | 0.6 | – | – | – | –
4 | Nc1nc(N)c2ncn([C@@H]3C[C@H](CO)[C@@H](O)[C@H]3O)c2n1 (relative stereo) [Example 2, (1α,2α,3β,5β)-3-(2,6-Diamino-9H-purin-9-yl)-5-(hydroxymethyl)-1,2-cyclopentanediol] | 197 (≈ 703 µM) | 2.2 | 0.32 (≈ 1.14 µM) | 4.6 | 3.8 | 0.3 (≈ 1.07 µM) | highly active | 2.3 (≈ 8.21 µM) | very high activity
5 | Nc1ncnc2c1ncn2[C@@H]1O[C@H](CO)[C@@H](O)[C@@H]1O [Ara-A, reference compound] | – | – | 2.5 to 10 (≈ 9.35 to 37.4 µM) | 2.0-2.2 | – | – | – | – | –
6 | Nc1nc(Cl)c2ncn([C@@H]3C[C@H](CO)[C@@H](O)[C@H]3O)c2n1 (relative stereo) [Example 1, (1α,2α,3β,5β)-3-(2-Amino-6-chloro-9HH-purin-9-yl)-5-(hydroxymethyl)-1,2-cyclopentanediol] | – | – | 10 (≈ 33.4 µM) | 1.7 | 1.2 | – | – | 20 (≈ 66.7 µM) | –
7 | CNc1nc(N)nc2c1ncn2[C@@H]1C[C@H](CO)[C@@H](O)[C@H]1O (relative stereo) [Example 3, (1α,2α,3β,5β)-3-[2-Amino-6-(methylamino)-9H-purin-9-yl]-5-(hydroxymethyl)-1,2-cyclopentanediol] | – | – | 320 (≈ 1090 µM) | 1.3 | – | – | – | – | –
